Reference: patent US8268836B2, “Compound useful as a c-Met inhibitor” (Eli Lilly and Company, priority 2010, dated 2012)
Values after ≈ are worked out from the molar mass of the structure shown. Like-named read-outs stand apart in the source and are kept apart here.

Columns and labels:
[1] = molecular target: cMet enzyme (Homo sapiens, UniProt P08581); assay: cMet Homogeneous Time Resolved Fluorescence (HTRF) in vitro assay; assay type: biochemical; conditions: relative IC50; read-out: c-Met IC50 (HTRF)
cMet enzyme, sequence (P08581 25-1390): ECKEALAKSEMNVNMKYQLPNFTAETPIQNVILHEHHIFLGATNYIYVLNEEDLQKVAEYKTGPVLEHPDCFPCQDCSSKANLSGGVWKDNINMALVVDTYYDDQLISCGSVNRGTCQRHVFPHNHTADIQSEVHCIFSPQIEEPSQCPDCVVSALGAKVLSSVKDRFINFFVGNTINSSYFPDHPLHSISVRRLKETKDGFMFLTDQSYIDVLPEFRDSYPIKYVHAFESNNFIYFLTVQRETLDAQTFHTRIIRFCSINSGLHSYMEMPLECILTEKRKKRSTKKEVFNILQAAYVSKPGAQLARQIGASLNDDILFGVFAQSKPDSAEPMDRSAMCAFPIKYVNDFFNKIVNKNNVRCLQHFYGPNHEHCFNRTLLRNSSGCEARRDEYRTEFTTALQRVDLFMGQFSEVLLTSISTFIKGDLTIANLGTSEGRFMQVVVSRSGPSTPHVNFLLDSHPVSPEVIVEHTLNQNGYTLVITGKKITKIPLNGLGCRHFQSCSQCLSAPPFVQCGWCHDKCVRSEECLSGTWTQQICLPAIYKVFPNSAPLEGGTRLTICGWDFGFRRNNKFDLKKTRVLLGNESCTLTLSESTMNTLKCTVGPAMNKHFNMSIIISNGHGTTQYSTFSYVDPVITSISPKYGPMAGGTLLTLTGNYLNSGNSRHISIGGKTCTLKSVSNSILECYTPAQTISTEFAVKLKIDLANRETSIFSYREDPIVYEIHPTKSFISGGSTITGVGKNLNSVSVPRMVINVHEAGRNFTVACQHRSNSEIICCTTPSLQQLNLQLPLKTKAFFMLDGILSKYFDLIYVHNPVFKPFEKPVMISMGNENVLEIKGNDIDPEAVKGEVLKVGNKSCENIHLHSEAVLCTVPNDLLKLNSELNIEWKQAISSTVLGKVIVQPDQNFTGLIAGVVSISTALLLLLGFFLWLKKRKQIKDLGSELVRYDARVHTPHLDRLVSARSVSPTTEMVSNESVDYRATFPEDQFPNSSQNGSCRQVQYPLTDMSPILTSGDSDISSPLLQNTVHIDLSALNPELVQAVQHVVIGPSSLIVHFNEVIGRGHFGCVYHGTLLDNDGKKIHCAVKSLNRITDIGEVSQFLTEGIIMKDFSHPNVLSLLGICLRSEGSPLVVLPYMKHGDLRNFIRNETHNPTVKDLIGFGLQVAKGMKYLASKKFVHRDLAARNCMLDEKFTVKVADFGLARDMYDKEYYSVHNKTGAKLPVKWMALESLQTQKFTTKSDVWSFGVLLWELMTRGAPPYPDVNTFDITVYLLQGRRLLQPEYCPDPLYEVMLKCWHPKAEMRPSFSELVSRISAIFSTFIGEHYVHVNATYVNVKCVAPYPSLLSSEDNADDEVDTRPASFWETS
Excerpt: This assay is based on HTRF technology and it is used to detect the phosphorylation of biotin labeled tyrosine peptide by cMet enzyme. After the reaction is completed, XL665 labeled streptavidin is used to recognize the biotin unit and a Europium (Eu3+) labeled anti-phospho-tyrosine antibody is used to recognize the phosphorylated tyrosine. The detection process relies on the transfer of energy between the excited Eu3+ and the XL665 labeled streptavidin. The aim of this protocol is to calculate the ability of test compounds to inhibit the phosphorylation of the product of this reaction and calculate their relative IC50 values.
A reference compound, if desired, may be prepared as a 1 mM stock solution in 100% DMSO and test compounds are prepared as 10 mM stock solutions in 100% DMSO. 1 mM reference compound and 10 mM test compounds are pre-diluted to 8 μM and 80 μM 10% DMSO solutions in a 96-well dilution plate. Compounds are serially diluted (1:3) using Tecan Freedom EVO 200 and 10-point dilution curves are generated for each of the compounds tested. 10 μL of serially diluted compounds are transferred to a 96-well assay plate using Temo (Tecan). […] The assay plate is incubated at RT for 60 min before reading the fluorescence signals at 620 nm emission and 665 nm […] in a Victor3 instrument (PerkinElmer Corporation). […]

[2] = test system: KP4 pancreatic xenografts; assay: Xenograft tumor model KP4; assay type: in vivo, mice
Protocol: Human glioblastoma cells U87MG, human gastric cancer cells MKN45, or human pancreatic KP4 cells are cultured and implanted subcutaneously in the rear flank of female CD-1 nu/nu strain mice which have been acclimated for one week in the animal facility after receipt from the vendor. Mice are randomized into groups of 10 mice per group. Testing compound is prepared in an appropriate vehicle and is administered by oral gavage when tumors are established (7-21 days after implant, or when the mean tumor volume reaches ˜100 mm^3). Tumor response is determined by tumor volume measurement performed twice a week during the course of treatment. Fluctuations in body weight are also monitored as a general measurement of toxicity. The compound of example 1 is orally administered twice a day for 28 days.
For statistical analysis, the individual subject tumor volumes are transformed to log volume and are analyzed with a two-way repeated measures analysis of variance by time and treatment using the MIXED procedures in SAS software (version 8.2). The correlation model for the repeated measures is spatial power. Treated groups are compared to the control group at the final time point. The MIXED procedure is also used separately for each treatment group to calculate adjusted means and standard errors at each time point. Both analyses account for the autocorrelation within each subject.

[3] = Dynamic solubility; assay type: physicochemical; conditions: for solubility at 18 h: thermodynamic from solid
Protocol: The media included simulated gastric fluid (SGF) which comprise of 0.01N HCl, 0.05% sodium lauryl sulfate, and 0.2% NaCl; fasted state simulated intestinal fluid (SIF-fasted) which composed of 29 mM NaH2PO4, 3 mM Na taurocholate, 0.75 mM lecithin, 103 mM NaCl, and NaOH to pH 6.5; fed state simulated intestinal fluid (SIF-fed) which comprise of 144 mM acetic acid, 15 mM Na taurocholate, 3.75 mM lecithin, 204 mM NaCl, and NaOH to pH 5.0; and pH 4.5, 6, 7.5 buffers which are 28-56 mM phosphate buffers. The compound concentrations are determined using Agilent 1200 HPLC (LC5) with a UV detector. Mobile phase uses A (85%) which is water containing 0.1% TFA and B (15%) which is ACN at a flow rate of 1 mL/min and run time of 10 min. Column of Zorbax, Bonus-RP (3.5 μm, 4.6×75 mm; SN: USTM002428) is used in the studies.

Which IC50 [1] does the source give for `Cn1cc(-c2ccc3nnc(Sc4ccc5nn(C)cc5c4)n3n2)cn1` [Example 1, 6-(1-Methyl-1H-pyrazol-4-yl)-3-(2-methyl-2H-indazol-5-ylthio)-[1,2,4]triazolo[4,3-b]pyridazine] here?
Its IC50 is 10 nM.

What about the “Mean Tumor Volume ± Standard Error” value ([2]; 2 mg/kg oral twice a day for 28 days) of the same molecule?
The value was 1229 ± 83 mm^3.

What about the “Mean Tumor Volume ± Standard Error” value ([2]; 4 mg/kg oral twice a day for 28 days) of the same molecule?
Its value is 1085 ± 256 mm^3.

What about the “Mean Tumor Volume ± Standard Error” value ([2]; 8 mg/kg oral twice a day for 28 days) of the same molecule?
The value was 627 ± 74 mm^3.

And the “Mean Tumor Volume ± Standard Error” value ([2]; 16 mg/kg oral twice a day for 28 days)?
The value was 554 ± 47 mm^3.

What about the “Mean Tumor Volume ± Standard Error” value ([2]; 32 mg/kg oral twice a day for 28 days) of the same molecule?
The value was 273 ± 42 mm^3.

And the solubility at 18 h ([3]; 0.01N HCl, simulated gastric fluid, read-out: Dynamic solubility, 0.01N HCl)?
The solubility at 18 h was 11 µg/mL (≈ 30.4 µM).

What about the solubility at 18 h ([3]; 0.1N HCl, simulated gastric fluid, read-out: Dynamic solubility, 0.1N HCl) of the same molecule?
Its solubility at 18 h is 33 µg/mL (≈ 91.1 µM).

What about the “fold more soluble than the reference compound, SIF fasted” value ([3]; SIF fasted state) of the same molecule?
Its value is “approximately 13 fold”.

What about the “fold more soluble than the reference compound, SIF fed” value ([3]; SIF fed state) of the same molecule?
The value was roughly 14 fold.

What about the solubility at 18 h ([3]; aqueous buffer, pH ≧ 4 phosphate buffer, read-out: Dynamic solubility, pH ≧ 4 buffer) of the same molecule?
Its solubility at 18 h is roughly 10 µg/mL (≈ 27.6 µM).

And the solubility at 18 h ([3]; fassif, fasted state simulated intestinal fluid pH 6.5, 18 h ambient, read-out: Dynamic solubility, SIF Fasted)?
The solubility at 18 h was 13 µg/mL (≈ 35.9 µM).

What about the solubility at 18 h ([3]; fessif, fed state simulated intestinal fluid pH 5.0, 18 h ambient, read-out: Dynamic solubility, SIF Fed) of the same molecule?
Its solubility at 18 h is 70 µg/mL (≈ 193 µM).

What about the solubility at 18 h ([3]; simulated gastric fluid, 18 h ambient, read-out: Dynamic solubility, SGF) of the same molecule?
The solubility at 18 h was 52 µg/mL (≈ 143 µM).

What about the solubility at 18 h ([3]; water, read-out: Dynamic solubility, Water) of the same molecule?
The solubility at 18 h was 9 µg/mL (≈ 24.8 µM).
